Key:
Format in all cases: cell-based
[1] = tested on: Bacillus Cereus; experiment: agar plate disc-diffusion, inhibition zone; details: Gram positive; for zone of inhibition at 10000 ppm: A = concentration of comp. = 10,000 ppm; for zone of inhibition at 30000 ppm: B = concentration of comp. = 30000 ppm; for zone of inhibition at 50000 ppm: C = concentration of comp. = 50,000 ppm
Procedure: (§1) The antimicrobial properties of the synthesized compound was studied by the method of agar plate disc-diffusion. Sterilized filter papers (6 mm in diameter) were wetted with 10 μL of a solution of 1-cyclopropyl-6-fluoro-4-oxo-7-(4-((2-thioxobenzo[d]thiazol-3(2H)-yl)methyl)piperazin-1-yl)-1,4-dihydroquinoline-3-carboxylic acid (4) to be tested, containing 10 mg/mL in DMSO and the discs were allowed to air dry. The discs were then placed onto the surface of agar plates (nutrient agar for bacteria) seeded with the test organism. Each plate contained 15 mL of the agar medium, previously seeded with 0.2 mL of the broth culture of each organism pregrown for 18 h. The inhibition zones were measured in […]. Discs impregnated with DMSO were used as a control, and its inhibition zone was subtracted from the tested compound actual inhibition zone.

[2] = tested on: Escherichia coli; experiment: agar plate disc-diffusion, inhibition zone; details: Gram negative; for zone of inhibition at 10000 ppm: A = concentration of comp. = 10,000 ppm; for zone of inhibition at 30000 ppm: B = concentration of comp. = 30000 ppm; for zone of inhibition at 50000 ppm: C = concentration of comp. = 50,000 ppm
Procedure: as §1

[3] = tested on: Pseudomonas aeruginosa; experiment: agar plate disc-diffusion, inhibition zone; details: Gram negative; for zone of inhibition at 10000 ppm: A = concentration of comp. = 10,000 ppm; for zone of inhibition at 30000 ppm: B = concentration of comp. = 30000 ppm; for zone of inhibition at 50000 ppm: C = concentration of comp. = 50,000 ppm
Procedure: as §1

[4] = tested on: Staphylococcus aureus; experiment: agar plate disc-diffusion, inhibition zone; details: Gram positive; for zone of inhibition at 10000 ppm: A = concentration of comp. = 10,000 ppm; for zone of inhibition at 30000 ppm: B = concentration of comp. = 30000 ppm; for zone of inhibition at 50000 ppm: C = concentration of comp. = 50,000 ppm
Procedure: as §1

[5] = tested on: gram positive and gram-negative bacterial strains; experiment: antibacterial activity screen, overall statement; details: Bacillus cereus, Staphylococcus aureus, Pseudomonas aeruginosa and Escherichia coli
Procedure: as §1

Work on `O=C(O)c1cn(C2CC2)c2cc(N3CCNCC3)c(F)cc2c1=O` [Cip., ciprofloxacin, reference compound] yielded a zone of inhibition at 10000 ppm [1] of 29 mm, a zone of inhibition at 30000 ppm [1] of 30 mm and a zone of inhibition at 50000 ppm [1] of 42 mm. It also gave a zone of inhibition at 10000 ppm [2] of 30 mm, a zone of inhibition at 30000 ppm [2] of 39 mm and a zone of inhibition at 50000 ppm [2] of 60 mm. It also gave a zone of inhibition at 10000 ppm [3] of 29 mm, a zone of inhibition at 30000 ppm [3] of 30 mm and a zone of inhibition at 50000 ppm [3] of 53 mm. It also gave a zone of inhibition at 10000 ppm [4] of 43 mm, a zone of inhibition at 30000 ppm [4] of 44 mm and a zone of inhibition at 50000 ppm [4] of 53 mm.
For `O=C(O)c1cn(C2CC2)c2cc(N3CCN(Cn4c(=S)sc5ccccc54)CC3)c(F)cc2c1=O` [Compound 4, 1-cyclopropyl-6-fluoro-4-oxo-7-(4-((2-thioxobenzo[d]thiazol-3(2H)-yl)methyl)piperazin-1-yl)-1,4-dihydroquinoline-3-carboxylic acid], the zone of inhibition at 10000 ppm [1] was 35 mm, the zone of inhibition at 30000 ppm [1] was 39 mm and the zone of inhibition at 50000 ppm [1] was 44 mm. For the same compound, the zone of inhibition at 10000 ppm [2] was 39 mm, the zone of inhibition at 30000 ppm [2] was 44 mm and the zone of inhibition at 50000 ppm [2] was 49 mm. The zone of inhibition at 10000 ppm [3] was 24 mm, the zone of inhibition at 30000 ppm [3] was 31 mm and the zone of inhibition at 50000 ppm [3] was 39 mm. The zone of inhibition at 10000 ppm [4] was 10 mm, the zone of inhibition at 30000 ppm [4] was 17 mm and the zone of inhibition at 50000 ppm [4] was 22 mm. The “antibacterial activities (in words)” value [5] was “good antibacterial activities”.
